Test results as given in patent publication US9187472B2 (AbbVie Inc., priority 2012, dated 2015).

Legend:
PC3 cells = assay: NAMPT Cell Proliferation Assay; type: cell-based; details: Homo sapiens, PC-3, 120 h, 5 days incubation, cell viability by Cell Titer Glo
How it was run: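 Seed PC3 at 500 cells/well (RPMI, 10% HI-FBS), attach overnight; add compound, 10-fold series 10 μM → 1×10^−5 μM; incubate 5 d, 37° C/5% CO2; luminescent viability readout; fit % inhibition sigmoidally for IC50.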

NAMPT = NAMPT (Homo sapiens, UniProt P43490); assay: TR-FRET Binding Assay of NAMPT with PRPP; details: with 200 μM PRPP and 2.5 mM ATP; 2 nM NAMPT, 2 nM probe, 16 hours equilibration
How it was run: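 Substrate-containing variant: 200 μM PRPP plus 2.5 mM ATP are added to 2 nM NAMPT and 2 nM probe, with a 16-hour incubation ahead of TR-FRET reading.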

[1] = biological target: NAMPT (human, recombinant, C-terminally His-tagged) (Homo sapiens, UniProt P43490); assay: Time-Resolved Fluorescence Resonance Energy Transfer (TR-FRET) Binding Assay of NAMPT; details: without substrates; 6.8 nM NAMPT, 200 nM probe, 3 hours equilibration
How it was run: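 In a displacement format, the nicotinamide-site tracer at 200 nM competed with test compound for 6.8 nM enzyme detected via 1 nM terbium anti-His antibody; incubation lasted 3 hours at room temperature in 50 mM HEPES pH 7.5, 100 mM NaCl. Normalized 520/495 nm emission ratios gave IC50 values.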

Sequence of NAMPT (P43490 whole entry): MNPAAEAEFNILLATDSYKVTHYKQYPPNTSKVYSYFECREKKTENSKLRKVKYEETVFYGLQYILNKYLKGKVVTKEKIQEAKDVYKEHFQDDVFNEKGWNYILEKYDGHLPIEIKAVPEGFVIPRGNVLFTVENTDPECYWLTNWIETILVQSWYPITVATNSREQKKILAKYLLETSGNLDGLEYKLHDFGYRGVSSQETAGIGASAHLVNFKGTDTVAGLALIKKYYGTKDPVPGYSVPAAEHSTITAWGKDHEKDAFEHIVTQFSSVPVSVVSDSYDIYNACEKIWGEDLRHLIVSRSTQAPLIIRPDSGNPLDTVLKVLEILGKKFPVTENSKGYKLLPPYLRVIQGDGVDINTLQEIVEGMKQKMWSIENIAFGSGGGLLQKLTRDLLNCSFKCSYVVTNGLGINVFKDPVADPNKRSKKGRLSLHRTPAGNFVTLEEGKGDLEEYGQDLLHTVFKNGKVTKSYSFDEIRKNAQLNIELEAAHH
Sequence of NAMPT (human, recombinant, C-terminally His-tagged) (P43490 whole entry): as above

Row | SMILES | IC50 (PC3 cells) [nM] | IC50 (NAMPT) [nM] | IC50 [1] [nM]
1 | N#Cc1cccc(C(=O)N2CC(c3ccc(C(=O)NCc4ccn5ccnc5c4)cc3)C2)c1 [Example 653, 4-[1-(3-cyanobenzoyl)azetidin-3-yl]-N-(imidazo[1,2-a]pyridin-7-ylmethyl)benzamide] | 715 | 0.893 | 831
2 | O=C(Nc1ccc(C2=CCN(C(=O)CN3CCOCC3)CC2)cc1)Nc1ccc2nccn2c1 [Example 30, 1-imidazo[1,2-a]pyridin-6-yl-3-{4-[1-(morpholin-4-ylacetyl)-1,2,3,6-tetrahydropyridin-4-yl]phenyl}urea] | 38.4 | 0.785 | 1180
3 | CC(C)C(=O)n1cc(-c2ccc(C(=O)NCc3ccc4nccn4c3)s2)cn1 [Example 175, N-(imidazo[1,2-a]pyridin-6-ylmethyl)-5-[1-(2-methylpropanoyl)-1H-pyrazol-4-yl]thiophene-2-carboxamide] | 313 | 0.9 | 697
4 | Cc1ccccc1C(=O)N1CCC(c2ccc(C(=O)NCc3ccn4ccnc4c3)cc2)CC1 [Example 507, N-(imidazo[1,2-a]pyridin-7-ylmethyl)-4-[1-(2-methylbenzoyl)piperidin-4-yl]benzamide] | 3.2 | 0.359 | 121
5 | O=C(NCCCCC1CCN(C(=O)C2CCCO2)CC1)Nc1ccc2nccn2c1 (stereo not drawn) [Example 74, 1-imidazo[1,2-a]pyridin-6-yl-3-{4-[1-(tetrahydrofuran-2-ylcarbonyl)piperidin-4-yl]butyl}urea] | 14 | 0.222 | 356
6 | O=C(CC1CCCO1)Nc1ccc(C(=O)NCc2ccn3ccnc3c2)cc1 (stereo not drawn) [Example 209, N-(imidazo[1,2-a]pyridin-7-ylmethyl)-4-[(tetrahydrofuran-2-ylacetyl)amino]benzamide] | 693 | 0.988 | 811
7 | CC[C@H](C)C(=O)N1CCC(Oc2ccc(NC(=O)NCc3ccn4ccnc4c3)cc2)CC1 [Example 443, 1-(imidazo[1,2-a]pyridin-7-ylmethyl)-3-[4-({1-[(2S)-2-methylbutanoyl]piperidin-4-yl}oxy)phenyl]urea] | 8.96 | 0.274 | 138
8 | O=C(Nc1ccc(C2=CCN(C(=O)C3COCCO3)CC2)cc1)Nc1ccc2nccn2c1 (stereo not drawn) [Example 35, 1-{4-[1-(1,4-dioxan-2-ylcarbonyl)-1,2,3,6-tetrahydropyridin-4-yl]phenyl}-3-imidazo[1,2-a]pyridin-6-ylurea] | 58.6 | 0.801 | 387
9 | Cc1nc(CC(=O)N(CC2CCCO2)c2ncc(C(=O)NCc3ccc4nccn4c3)s2)cs1 (stereo not drawn) [Example 124, N-(imidazo[1,2-a]pyridin-6-ylmethyl)-2-{[(2-methyl-1,3-thiazol-4-yl)acetyl](tetrahydrofuran-2-ylmethyl)amino}-1,3-thiazole-5-carboxamide] | 20.8 | 2.12 | 1100
10 | O=C(NCc1ccc2nccn2c1)c1ccc(C2=CCN(C(=O)CN3CCOCC3)CC2)cc1 [Example 92, N-(imidazo[1,2-a]pyridin-6-ylmethyl)-4-[1-(morpholin-4-ylacetyl)-1,2,3,6-tetrahydropyridin-4-yl]benzamide] | 9.48 | 0.881 | 183
11 | O=C(NCc1ccn2ccnc2c1)c1ccc(C2CCN(C(=O)c3ccc(F)cc3)CC2)cc1 [Example 508, 4-[1-(4-fluorobenzoyl)piperidin-4-yl]-N-(imidazo[1,2-a]pyridin-7-ylmethyl)benzamide] | 28.6 | 0.481 | 257
12 | O=C(NCc1ccn2ccnc2c1)c1ccc(C2CCN(C(=O)c3ccncc3)C2)s1 (stereo not drawn) [Example 773, N-(imidazo[1,2-a]pyridin-7-ylmethyl)-5-[1-(pyridin-4-ylcarbonyl)pyrrolidin-3-yl]thiophene-2-carboxamide] | 9.53 | 0.773 | 72.6
13 | CC1(Cn2cc(-c3ccc(C(=O)NCc4ccn5ccnc5c4)s3)cn2)CCCCO1 (stereo not drawn) [Example 465, N-(imidazo[1,2-a]pyridin-7-ylmethyl)-5-{1-[(2-methyltetrahydro-2H-pyran-2-yl)methyl]-1H-pyrazol-4-yl}thiophene-2-carboxamide] | 0.319 | 0.169 | 13.8
14 | CC(=O)Nc1ccc(NC(=O)Nc2ccc3nccn3c2)cc1 [Example 27] | 7540 | 0.658 | 756
15 | O=C(NCc1ccn2ccnc2c1)Nc1ccc(OC2CN(C(=O)CC3CCOCC3)C2)cc1 [Example 435, 1-(imidazo[1,2-a]pyridin-7-ylmethyl)-3-(4-{[1-(tetrahydro-2H-pyran-4-ylacetyl)azetidin-3-yl]oxy}phenyl)urea] | 20.4 | 0.191 | 163
16 | O=C(NCc1ccn2ccnc2c1)c1ccc(O[C@@H]2CCN(C(=O)c3ccccc3)C2)cc1 [Example 493, 4-{[(3R)-1-benzoylpyrrolidin-3-yl]oxy}-N-(imidazo[1,2-a]pyridin-7-ylmethyl)benzamide] | 486 | 0.455 | 1290
17 | O=C(NCc1ccn2ccnc2c1)c1ccc(C2CN(C(=O)c3cscn3)C2)cc1 [Example 637, N-(imidazo[1,2-a]pyridin-7-ylmethyl)-4-[1-(1,3-thiazol-4-ylcarbonyl)azetidin-3-yl]benzamide] | 81.1 | 0.421 | 360
18 | O=C(NCc1ccc2nccn2c1)c1cnc(N2CC(c3ccccc3)OC2=O)s1 (stereo not drawn) [Example 122, N-(imidazo[1,2-a]pyridin-6-ylmethyl)-2-(2-oxo-5-phenyl-1,3-oxazolidin-3-yl)-1,3-thiazole-5-carboxamide] | 172 | 4.76 | 255
19 | COCCN1CCN(c2ncc(C(=O)NCc3ccn4ccnc4c3)s2)CC1 [Example 357, N-(imidazo[1,2-a]pyridin-7-ylmethyl)-2-[4-(2-methoxyethyl)piperazin-1-yl]-1,3-thiazole-5-carboxamide] | 6740 | 0.291 | > 10000
20 | O=C(Nc1ccc(NC(=O)C2CCOCC2)cc1)Nc1ccc2nccn2c1 [Example 46] | 6280 | 0.318 | 773
21 | O=C(NCc1ccn2ccnc2c1)c1ccc(C2CCN(C(=O)c3cccc(F)c3)CC2)cc1 [Example 516, 4-[1-(3-fluorobenzoyl)piperidin-4-yl]-N-(imidazo[1,2-a]pyridin-7-ylmethyl)benzamide] | 21.3 | 0.266 | 117
22 | O=C(NCc1ccn2ccnc2c1)c1ccc(C2CCN(C(=O)c3cc(F)cc(F)c3)CC2)cc1 [Example 530, 4-[1-(3,5-difluorobenzoyl)piperidin-4-yl]-N-(imidazo[1,2-a]pyridin-7-ylmethyl)benzamide] | 82.1 | 0.791 | 378
23 | CC(C)CC(=O)NC1(c2ccc(C(=O)NCc3ccn4ccnc4c3)s2)CCC1 [Example 469, N-(imidazo[1,2-a]pyridin-7-ylmethyl)-5-{1-[(3-methylbutanoyl)amino]cyclobutyl}thiophene-2-carboxamide] | 3380 | 0.432 | > 10000
24 | CC(C)C(=O)N1CCC(O)(c2ccc(C(=O)NCc3ccn4ccnc4c3)s2)CC1 [Example 554, 5-[4-hydroxy-1-(2-methylpropanoyl)piperidin-4-yl]-N-(imidazo[1,2-a]pyridin-7-ylmethyl)thiophene-2-carboxamide] | 177 | 0.837 | 451
25 | O=C(NCc1ccn2ccnc2c1)c1ccc(C2CCN(C(=O)[C@@H]3CCCO3)C2)cc1 (stereo partly drawn) [Example 374, N-(imidazo[1,2-a]pyridin-7-ylmethyl)-4-{1-[(2S)-tetrahydrofuran-2-ylcarbonyl]pyrrolidin-3-yl}benzamide] | 792 | 0.292 | 1670
26 | COCCC(=O)N(CCC(C)C)c1ncc(C(=O)NCc2ccc3nccn3c2)s1 [Example 61, N-(imidazo[1,2-a]pyridin-6-ylmethyl)-2-[(3-methoxypropanoyl)(3-methylbutyl)amino]-1,3-thiazole-5-carboxamide] | 6.01 | 0.549 | 78.2
27 | O=C(NCc1ccn2ccnc2c1)c1ccc(C2CCN(C(=O)c3ccccc3F)CC2)cc1 [Example 513, 4-[1-(2-fluorobenzoyl)piperidin-4-yl]-N-(imidazo[1,2-a]pyridin-7-ylmethyl)benzamide] | 1.18 | 0.188 | 23.9
28 | Cc1ccsc1C(=O)N1CCC(c2ccc(C(=O)NCc3ccn4ccnc4c3)cc2)CC1 [Example 524, N-(imidazo[1,2-a]pyridin-7-ylmethyl)-4-{1-[(3-methylthiophen-2-yl)carbonyl]piperidin-4-yl}benzamide] | 2.46 | 0.169 | 24.7
29 | O=C(NCc1ccn2ccnc2c1)c1ccc(-c2cnn(CCN3CCNCC3)c2)s1 [Example 809, N-(imidazo[1,2-a]pyridin-7-ylmethyl)-5-{1-[2-(piperazin-1-yl)ethyl]-1H-pyrazol-4-yl}thiophene-2-carboxamide] | 33.2 | 0.63 | 95.3
